From patent publication US20170275270A1, “BENZYL SUBSTITUTED INDAZOLES” (Bayer Pharma Aktiengesellschaft, priority 2014, published 2017)
pIC50: −log10 of the molar value. Read-outs that look alike come from different tables or passages of the source.

What was measured:
[1] = tested on: HeLa human cervical tumor cells; test: Proliferation assay (HeLa+Paclitaxel); settings: read-out: Biological Assay 3: HeLa + Paclitaxel IC50, 3 nM paclitaxel, crystal violet;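 note: compounds at 0.001-10 µM added 4 h after paclitaxel, 92 h exposure, absorbance normalized to zero-point plate (0%) and untreated cells (100%), IC50 from 4-parameter fit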
[2] = biological target: T1, catalytic domain of human Bub1 (amino acids 704-1085) (Homo sapiens, UniProt O43683); test: Bub1 kinase assay (TR-FRET); format: biochemical
T1 construct: catalytic domain of human Bub1 (amino acids 704-1085); His6 (N); made in house; host or cells: Hi5 insect cells
T1 sequence (O43683 704-1085): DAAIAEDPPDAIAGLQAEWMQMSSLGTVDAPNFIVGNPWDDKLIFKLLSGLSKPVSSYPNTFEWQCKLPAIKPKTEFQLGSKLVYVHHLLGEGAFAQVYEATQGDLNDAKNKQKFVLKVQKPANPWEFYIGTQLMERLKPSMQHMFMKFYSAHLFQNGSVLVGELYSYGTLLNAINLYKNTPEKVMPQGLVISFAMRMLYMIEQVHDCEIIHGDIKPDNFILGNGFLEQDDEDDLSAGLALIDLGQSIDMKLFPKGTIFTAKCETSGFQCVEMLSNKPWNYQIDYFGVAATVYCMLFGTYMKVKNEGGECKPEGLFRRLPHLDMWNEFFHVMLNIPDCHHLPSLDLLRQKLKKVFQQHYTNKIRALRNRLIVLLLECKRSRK
Summary of the method: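 TR-FRET read-out (Eu-anti-mouse IgG/anti-phosphoserine antibody to streptavidin-XL665 on biotinylated peptide) after EDTA stop and 1 h complex formation at 22° C. Kinase reaction ran 60 min at 22° C with 1:3.4 serial dilutions from 2 mM DMSO stocks. IC50 from 4-parameter logistic fit of normalized inhibition.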

[3] = tested on: HeLa; test: Proliferation assay (HeLa cell line); settings: Homo sapiens, 96 h, read-out: Biological Assay 2: Proliferation assay (HeLa cell line) median IC50;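 note: crystal violet staining of cell number, scaled between a plate stained before dosing (0%) and cells left untreated (100%), compounds tested at 0.001-10 µM, IC50 via 4-parameter fit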
Method: Cultivated tumor cells (cells were ordered from ATCC, except HeLa-MaTu and HeLa-MaTu-ADR, which were ordered from EPO-GmbH, Berlin) were plated at a density of 1000 to 5000 cells/well, depending on the growth rate of the respective cell line, in a 96-well multititer plate in 200 μL of their respective growth medium supplemented 10% fetal calf serum. After 24 hours, the cells of one plate (zero-point plate) were stained with crystal violet (see below), while the medium of the other plates was replaced by fresh culture medium (200 μL), to which the test substances were added in various concentrations (0 μM, as well as in the range of 0.001-10 μM; the final concentration of the solvent dimethyl sulfoxide was 0.5%). The cells were incubated for 4 days in the presence of test substances. Cell proliferation was determined by staining the cells with crystal violet: the cells were fixed by adding 20 μL measuring point of an 11% glutaric aldehyde solution for 15 minutes at room temperature. After three washing cycles of the fixed cells with water, the plates were dried at room temperature. The cells were stained by adding 100 μL/measuring point of a 0.1% crystal violet solution (pH 3.0). After three washing cycles of the stained cells with water, the plates were dried at room temperature. The dye was dissolved by adding 100 μl/measuring point of a 10% acetic acid solution. […] The change of cell number, in percent, was calculated by normalization of the measured values to the absorbtion values of the zero-point plate (=0%) and the absorbtion of the untreated (0 μm) cells (=100%). The IC50 values were determined by means of a 4 parameter fit.

[4] = Biological Assay 1: Bub1 kinase assay median IC50, 10 μM ATP

Compound | pIC50 [1] | pIC50 [2, 4] | pIC50 [3] | pIC50 ([2]; 10 μM ATP, read-out: Biological Assay 1: Bub1 kinase assay median IC50)
CCOc1cc(F)c(Cn2nc(-c3nc(Nc4ccnc(C)n4)cc(C4CCCO4)n3)c3ccccc32)c(F)c1 (racemic) [Example 2-12-87, 2-[1-(4-ethoxy-2,6-difluorobenzyl)-1H-indazol-3-yl]-N-(2-methylpyrimidin-4-yl)-6-[(2rac)-tetrahydrofuran-2-yl]pyrimidin-4-amine] | 5.82 | 7.43 | 5.03 | 
CCOc1cc(F)c(Cn2nc(-c3nc4c(c(Nc5ccnc(S(C)(=O)=O)c5)n3)CCC4)c3ccccc32)c(F)c1 [Example 2-19-6, 2-[1-(4-ethoxy-2,6-difluorobenzyl)-1H-indazol-3-yl]-N-[2-(methylsulfonyl)pyridin-4-yl]-6,7-dihydro-5H-cyclopenta[d]pyrimidin-4-amine] | 6.32 |  | < 5.00 | 
CCOc1cc(F)c(Cn2nc(-c3nc4c(c(Nc5ccnc(C)c5)n3)COC4)c3ccccc32)c(F)c1 [Example 2-19-16, 2-[1-(4-ethoxy-2,6-difluorobenzyl)-1H-indazol-3-yl]-N-(2-methylpyridin-4-yl)-5,7-dihydrofuro[3,4-d]pyrimidin-4-amine] |  | 7.00 |  | 
CCOc1cc(F)c(Cn2nc(-c3nc4c(c(Nc5ccncc5C)n3)COC4)c3ccccc32)c(F)c1 [Example 2-19-18, 2-[1-(4-ethoxy-2,6-difluorobenzyl)-1H-indazol-3-yl]-N-(3-methylpyridin-4-yl)-5,7-dihydrofuro[3,4-d]pyrimidin-4-amine] |  | 7.08 |  | 
COCCOc1cc(F)c(Cn2nc(-c3ncc(C4CCN(CC(F)F)CC4)c(Nc4ccnc(C)n4)n3)c3ccccc32)c(F)c1 [Example 2-20-11, 5-[1-(2,2-difluoroethyl)piperidin-4-yl]-2-{1-[2,6-difluoro-4-(2-methoxyethoxy)benzyl]-1H-indazol-3-yl}-N-(2-methylpyrimidin-4-yl)pyrimidin-4-amine] |  | 7.20 |  | 
CCOc1cc(F)c(Cn2nc(-c3ncc(CCNCC(F)(F)F)c(Nc4ccnc(C)n4)n3)c3ccccc32)c(F)c1 [Example 2-20-13, 2-[1-(4-ethoxy-2,6-difluorobenzyl)-1H-indazol-3-yl]-N-(2-methylpyrimidin-4-yl)-5-{2-[(2,2,2-trifluoroethyl)amino]ethyl}pyrimidin-4-amine] |  | 6.25 |  | 
COCCOc1cc(F)c(Cn2nc(-c3nc4c(c(Nc5ccncn5)n3)CN(CC(F)(F)F)C4)c3ccccc32)c(F)c1 [Example 2-20-18, 2-{1-[2,6-difluoro-4-(2-methoxyethoxy)benzyl]-1H-indazol-3-yl}-N-(pyrimidin-4-yl)-6-(2,2,2-trifluoroethyl)-6,7-dihydro-5H-pyrrolo[3,4-d]pyrimidin-4-amine] |  | 7.55 |  | 
CCOc1cc(F)c(Cn2nc(-c3ncc(OCCN)c(Nc4ccncc4)n3)c3ccccc32)c(F)c1 [Example 3-4-1, 5-(2-aminoethoxy)-2-[1-(4-ethoxy-2,6-difluorobenzyl)-1H-indazol-3-yl]-N-(pyridin-4-yl)pyrimidin-4-amine, reference compound] |  |  | 5.85 | 8.47

Second part, led by results:

pIC50 [1] | pIC50 [2, 4] | pIC50 [3] | Compound | pIC50 ([2]; 10 μM ATP, read-out: Biological Assay 1: Bub1 kinase assay median IC50)
5.85 | 8.12 | 5.41 | CCOc1cc(F)c(Cn2nc(-c3nc(Nc4ccncn4)cc(C4CCCO4)n3)c3ccccc32)c(F)c1 (racemic) [Example 2-12-86, 2-[1-(4-ethoxy-2,6-difluorobenzyl)-1H-indazol-3-yl]-N-(pyrimidin-4-yl)-6-[(2rac)-tetrahydrofuran-2-yl]pyrimidin-4-amine] | 
6.70 | 8.24 | 5.92 | CCOc1cc(F)c(Cn2nc(-c3nc(Nc4ccncc4OC)cc(C4CCCO4)n3)c3ccccc32)c(F)c1 (racemic) [Example 2-12-88, 2-[1-(4-ethoxy-2,6-difluorobenzyl)-1H-indazol-3-yl]-N-(3-methoxypyridin-4-yl)-6-[(2rac)-tetrahydrofuran-2-yl]pyrimidin-4-amine] | 
 | 7.92 |  | CCOc1cc(F)c(Cn2nc(-c3nc4c(c(Nc5ccncc5)n3)CCCC4)c3ccccc32)c(F)c1 [Example 2-19-21, 2-[1-(4-ethoxy-2,6-difluorobenzyl)-1H-indazol-3-yl]-N-(pyridin-4-yl)-5,6,7,8-tetrahydroquinazolin-4-amine] | 
 | 7.18 |  | COCCOc1cc(F)c(Cn2nc(-c3ncc(C4CCN(CC(F)(F)F)CC4)c(Nc4ccnc(NC(C)=O)c4)n3)c3ccccc32)c(F)c1 [Example 2-20-7, N-{4-[(2-{1-[2,6-difluoro-4-(2-methoxyethoxy)benzyl]-1H-indazol-3-yl}-5-[1-(2,2,2-trifluoroethyl)piperidin-4-yl]pyrimidin-4-yl)amino]pyridin-2-yl}acetamide] | 
 | < 4.70 |  | COCCOc1cc(F)c(Cn2nc(-c3ncc(C4CCN(CC(F)(F)F)CC4)c(Nc4ccncc4Cl)n3)c3ccccc32)c(F)c1 [Example 2-20-8, N-(3-chloropyridin-4-yl)-2-{1-[2,6-difluoro-4-(2-methoxyethoxy)benzyl]-1H-indazol-3-yl}-5-[1-(2,2,2-trifluoroethyl)piperidin-4-yl]pyrimidin-4-amine] | 
 | 6.66 |  | COCCOc1cc(F)c(Cn2nc(-c3ncc(C4CCN(CCC(F)(F)F)CC4)c(Nc4ccncc4Cl)n3)c3ccccc32)c(F)c1 [Example 2-20-9, N-(3-chloropyridin-4-yl)-2-{1-[2,6-difluoro-4-(2-methoxyethoxy)benzyl]-1H-indazol-3-yl}-5-[1-(3,3,3-trifluoropropyl)piperidin-4-yl]pyrimidin-4-amine] | 
 | 6.54 |  | COCCOc1cc(F)c(Cn2nc(-c3ncc(C4CCN(CC(F)(F)F)CC4)c(Nc4ccnc(C)n4)n3)c3ccccc32)c(F)c1 [Example 2-20-10, 2-{1-[2,6-difluoro-4-(2-methoxyethoxy)benzyl]-1H-indazol-3-yl}-N-(2-methylpyrimidin-4-yl)-5-[1-(2,2,2-trifluoroethyl)piperidin-4-yl]pyrimidin-4-amine] | 
 | 7.66 |  | CCOc1cc(F)c(Cn2nc(-c3ncc(CCNCC(F)(F)F)c(Nc4ccnc(NC(C)=O)c4)n3)c3ccccc32)c(F)c1 [Example 2-20-15, N-{4-[(2-[1-(4-ethoxy-2,6-difluorobenzyl)-1H-indazol-3-yl]-5-{2-[(2,2,2-trifluoroethyl)amino]ethyl}pyrimidin-4-yl)amino]pyridin-2-yl}acetamide] | 
 | 6.92 |  | COCCOc1cc(F)c(Cn2nc(-c3nc4c(c(Nc5ccnc(C)n5)n3)CN(CC(F)(F)F)C4)c3ccccc32)c(F)c1 [Example 2-20-16, 2-{1-[2,6-difluoro-4-(2-methoxyethoxy)benzyl]-1H-indazol-3-yl}-N-(2-methylpyrimidin-4-yl)-6-(2,2,2-trifluoroethyl)-6,7-dihydro-5H-pyrrolo[3,4-d]pyrimidin-4-amine] | 
 | 7.47 |  | COCCOc1cc(F)c(Cn2nc(-c3nc4c(c(Nc5cc(C)ncc5C)n3)CN(CC(F)(F)F)C4)c3ccccc32)c(F)c1 [Example 2-20-17, 2-{1-[2,6-difluoro-4-(2-methoxyethoxy)benzyl]-1H-indazol-3-yl}-N-(2,5-dimethylpyridin-4-yl)-6-(2,2,2-trifluoroethyl)-6,7-dihydro-5H-pyrrolo[3,4-d]pyrimidin-4-amine] | 
6.39 |  | 5.35 | CCOc1cc(F)c(Cn2nc(-c3ncc(OCC[S+](C)[O-])c(Nc4ccncc4)n3)c3ccccc32)c(F)c1 (stereo not shown) [Example 3-2-1, 2-[1-(4-ethoxy-2,6-difluorobenzyl)-1H-indazol-3-yl]-5-[2-(methylsulfinyl)ethoxy]-N-(pyridin-4-yl)pyrimidin-4-amine, reference compound] | 
